| melting point [°C] | SMILES |
| --- | --- |
| 57 | c1ccc2c(c1)CC1=C2CCCC1 |
| 65 to 67.5 | Cc1ccc(S(=O)(=O)OC2CCC3(CC2)OCCO3)cc1 |
| 164 to 166 | O=C(COc1ncc(Cl)cc1Cl)Nc1ccccc1 |
| 122 to 125 | Cc1nc(-c2ccccc2)cc(-c2cccc(C=O)c2)c1C(=O)NCCN1CCOCC1 |
| 223 | CCN1CCc2ccc(Nc3ncc(Cl)c(Nc4cc(Cl)ccc4C(=O)NC)n3)cc2CC1 |
| 151 to 152 | O=C1NCc2ccc(-c3cccc4cc(Cc5cccc(C(F)(F)F)c5)sc34)cc21 |
| 178 to 179 | C[C@H](CS(C)(=O)=O)Nc1n[nH]c2nc(Oc3ccc(F)cc3F)ncc12 |
| 89 to 91 | CC(Cc1c[nH]c2ccccc12)(NC(=O)OC1C2CC3CC(C2)CC1C3)C(=O)NCCc1ccccn1 (stereo unspecified) |
| 102 to 103 | O=C1c2ccccc2C(=O)N1CCCCN1CCC(=C(c2ccccc2)c2ccccc2)CC1 |
| 237 to 241 | Cc1ccccc1CCNC(=O)c1c(Cl)ccc2nc(N3CCC(C(=O)O)CC3)ccc12 |
| 130 | CC(C(=O)O)c1cccc(NC(=O)NCC(=O)N2[C@@H](c3cccc(F)c3F)SC[C@H]2C(=O)OC(C)(C)C)c1 (stereo partly specified) |
| 160 to 161 | CN(C)C(=N)Nc1ccc(F)cc1-c1ccccc1 |
| 158 to 159 | COC(=O)C(O)=CC(=O)c1cn(Cc2ccccc2)c(=O)n(Cc2ccccc2)c1=O |
| 203 to 204 | CCCCC[C@H]1CC[C@H](CCC2CCC(c3ccc(O)cc3)(c3ccc(O)cc3)CC2)CC1 |
| 98 to 100 | O=C(c1cnccn1)N1CCCC(c2ccccc2)=N1 |
| 140 to 142 | Nc1ccccc1C(=O)NO |
| 160 to 161 | CCOC(=O)C1=C(N)NC(C)=CC1c1ccc(OC)cc1 (stereo unspecified) |
| 68 to 69 | CC1Cc2c(F)cc(F)cc2C1=O (stereo unspecified) |
| 168 to 169 | O=C(NCCO)c1cccc(-c2nccc3cc(Cc4cccc(C(F)(F)F)c4)oc23)c1 |
| > 243 | O=C(O)c1c2nc3ccccc3c-2[nH]c2ccc(F)cc12 |
| 192 to 196 | NC(=O)CCc1cc(C(=O)O)cc(S(N)(=O)=O)c1Oc1ccccc1 |
| 128 to 131 | CC(=O)C(=NNc1cccc(Cl)c1)Sc1ccc(Cl)cc1 |
| 116 to 117 | Fc1ccc2c(c1)[C@@H]1c3ccccc3N[C@@H]1C2 (relative stereo) |
| 215 to 216 | Nc1ccccc1NC(=O)c1cc2cc(OCCO)ccc2s1 |
| 135 to 136 | COc1cc(CO)ccc1OCc1cn(-c2ccccn2)nc1C |
| 76 to 78 | OCCCCCCn1nc(-c2ccccc2)c(-c2ccccc2)c1-c1ccccc1 |
| 257 to 258 | COc1cc(OC)c2cc(-c3ccccc3)c(=O)[nH]c2c1 |
| 218 to 219 | CC(C)Cn1c(CNC(=O)OC(C)(C)C)c(-c2ccccc2)c2cc(O)ccc2c1=O |

The next lines start with the molecule.

| SMILES | melting point [°C] |
| --- | --- |
| CC(C)(C)C(=O)Nc1cccc(N)n1 | 140 to 141 |
| CCOC(=O)C(C(N)=O)c1cc(OC)c(OC)c(OC)c1 (stereo unspecified) | 93 |
| Cc1[nH]c(=O)n(-c2cc(C(=O)OC(C)C)c(Cl)cc2F)c(=O)c1SC#N | 159 to 161 |
| COc1c(Cl)cc2nc3c(=O)[nH][nH]c(=O)c3c(O)c2c1Cl | 210 to 211 |
| COC(=O)CCC#Cc1ccc(O)c(CCC(=O)OC)n1 | 119 to 121 |
| O=C(O)c1cnc2ncnn2c1S | 247 to 249 |
| O=C1CSC(C(=O)O)Cc2cc3c(cc21)OCCO3 (stereo unspecified) | 208 to 209 |
| CCOC(=O)C(C)(C)Oc1ccc(-c2ccc(CCNC(=O)c3cc(OC)c(OC)c(OC)c3)cc2)cc1 | < 20 |
| CCOC(=O)c1ccc2[nH]c([Si](C)(C)C)c(CCCO[Si](C)(C)C(C)(C)C)c2c1 | 115 to 116 |
| CNC(=O)C(C)Oc1cc(-c2nn(C)c(C(F)(F)F)c2Cl)c(F)cc1Cl (stereo unspecified) | 134 to 136 |
| CC1(CF)C=C(C(=O)NCCC#N)c2cc([N+](=O)[O-])ccc2O1 (stereo unspecified) | 165 to 167 |
| Cc1cccc(C)c1CCOCCCCCCNCc1c(CO)ccc(O)c1CO | 83 to 86 |
| CCc1cn(C2CC(O)C(CCCO)O2)c(=O)[nH]c1=O (stereo unspecified) | 113 to 115 |
| CCOC(=O)c1cc2c(nc1COc1ccc(C=O)cc1)CCCCC2 | 83 to 84 |
| C/C=C/CC(=O)N[C@H]1CC[C@H](CCN2CCN(c3nccc4c3CCO4)CC2)CC1 | 176 |
| Cc1cc2c(cc1-c1c[nH]c(C=O)c1)C(C)(C)CCC2(C)C | 128 to 129 |
| CN1CC(CNC(=N)NC(=O)c2ccccc2)CC2c3cccc4[nH]cc(c34)CC21 (stereo unspecified) | 190 to 191 |
| COc1ccc(OC)c(S(=O)(=O)n2c(COC(C)(C)C(=O)O)cc3nc(Cl)ccc32)c1 | 200 |
| CCCCCCC(Oc1ccc(C2=CCCCCCC2)cc1)C(=O)O (stereo unspecified) | 55 to 57 |
| C#CCNc1cccc2c1OC(F)(F)O2 | 66 to 68 |
| O=C1CCC(N2Cc3c(OCc4nc(CN5CCOCC5)no4)cccc3C2=O)C(=O)N1 (stereo unspecified) | 150 to 152 |
| CC(C)(C)OC(=O)Nc1nc(C(=CC(C)(C)C(=O)OCc2ccccc2)C(=O)O)cs1 | 175 to 177 |
| O=[N+]([O-])c1ccc(SCCn2cnnc2)cc1 | 162 to 165 |

From a melting point compilation (Tetko et al.; mined from patent text by program, amines drawn as free bases though some values may be those of a salt)
